Laboratory results as given in US20230042936A1, “PYRIDO[2,3-d]PYRIMIDIN-7(8H)-ONES AS CDK INHIBITORS” (PROSENESTAR LLC, priority 2020, published 2023).
Entries after “also recorded” stand apart in the source; their conditions may differ. Read-outs that look alike come from different tables or passages of the source.

Assays:
[1] = test system: MDA-MB-231 human breast cancer cells; assay: Cell cycle analysis (DNA content, flow cytometry); type: cell-based; conditions: GI50 concentration; FIG. 1
Protocol: FIG. 1 depicts DNA content profiles of MDA-MB-231 human breast cancer cells treated with subject compounds or commercial CDK inhibitors, showing the percentage of cells at the different cell cycle phases after 48 hours of the treatments indicated. (n=6 technical replicates).
Cells were collected by trypsinization, washed with PBS and fixed with cold 70% ethanol. Cells were treated with 250 μg/ml RNase (Qiagen) for 30 minutes at 37° C. and stained with 10 μg/ml Propidium Iodide (Sigma). Cell cycle was analyzed by flow cytometry using a LSR Fortessa Analyzer. Cell cycle profiles were generated and analyzed with FlowJo software.
Cells were collected by tripsinization at several times after treatment with the indicated compounds and, then, fixed with cold 70% Ethanol. DNA content was determined by staining with propidium iodide (10 μg/ml, Sigma Aldrich). Data acquisition was performed with a LSR Fortessa analyzer (BD Biosciences) and analysed using FlowJo software.

CDK6/CycD1 = CDK6/CycD1 (Homo sapiens, UniProt Q00534); assay: Kinase profiling; type: biochemical; conditions: 10 semi-logarithmic dilutions from 50 μM, singlicate
ERK1 = ERK1 (Homo sapiens, UniProt P27361); assay: Kinase profiling; type: biochemical; conditions: 10 semi-logarithmic dilutions from 50 μM, singlicate
CDK4/CycD3 = CDK4/CycD3 (Homo sapiens, UniProt P11802); assay: Kinase profiling; type: biochemical; conditions: 10 semi-logarithmic dilutions from 50 μM, singlicate
CDK7/CycH/MAT1 = CDK7/CycH/MAT1 (Homo sapiens, UniProt P50613); assay: Kinase profiling; type: biochemical; conditions: 10 semi-logarithmic dilutions from 50 μM, singlicate
CDK1/CycB1 = CDK1/CycB1 (Homo sapiens, UniProt P06493); assay: Kinase profiling; type: biochemical; conditions: 10 semi-logarithmic dilutions from 50 μM, singlicate
CDK3/CycC = CDK3/CycC (Homo sapiens, UniProt Q00526); assay: Kinase profiling; type: biochemical; conditions: 10 semi-logarithmic dilutions from 50 μM, singlicate
CDK4/CycD1 = CDK4/CycD1 (Homo sapiens, UniProt P11802); assay: Kinase profiling; type: biochemical; conditions: 10 semi-logarithmic dilutions from 50 μM, singlicate
CDK2/CycE1 = CDK2/CycE1 (Homo sapiens, UniProt P24941); assay: Kinase profiling; type: biochemical; conditions: 10 semi-logarithmic dilutions from 50 μM, singlicate
CDK8/CycC = CDK8/CycC (Homo sapiens, UniProt P49336); assay: Kinase profiling; type: biochemical; conditions: 10 semi-logarithmic dilutions from 50 μM, singlicate
CDK19/CycC = CDK19/CycC (Homo sapiens, UniProt Q9BWU1); assay: Kinase profiling; type: biochemical; conditions: 10 semi-logarithmic dilutions from 50 μM, singlicate
[2] = test system: H460 lung carcinoma cell line; assay: Proliferation assay: determination of GI50; type: cell-based, human; conditions: Homo sapiens, NCI-H460; Table 3; 48 h; n = 2 independent experiments
Summary of the method: (§1)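 Rb-proficient U87MG, MDA-MB-231 and H460 and Rb-deficient SW1783, grown in DMEM or RPMI-1640 with 10% FBS, treated for 48 h. Cells fixed in 4% PFA, Hoechst 33342-stained and counted by high-content imaging (20×, 30 fields/well); GI50 taken as absolute IC50 from dose-response fit.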

[3] = test system: U87MG glioblastoma cell line; assay: Proliferation assay: determination of GI50; type: cell-based, human; conditions: Homo sapiens, U-87 MG
Summary of the method: as §1

[4] = test system: MCF10 non-transformed mammary epithelial cell line; assay: Proliferation assay: determination of GI50; type: cell-based, human; conditions: Homo sapiens, MCF10; Table 3; 48 h; n = 2 independent experiments
[5] = test system: MDA-MB-231 breast carcinoma cell line; assay: Proliferation assay: determination of GI50; type: cell-based, human; conditions: Homo sapiens, MDA-MB-231
Summary of the method: as §1

CDK2/CycA2 = CDK2/CycA2 (Homo sapiens, UniProt P24941); assay: Kinase profiling; type: biochemical; conditions: 10 semi-logarithmic dilutions from 50 μM, singlicate
AKT1 aa1-480 = target: T1, AKT1 aa1-480 (Homo sapiens, UniProt P31749); assay: Kinase profiling; type: biochemical; conditions: 10 semi-logarithmic dilutions from 50 μM, singlicate
T1 construct: AKT1 aa1-480

CDK9/CycK = CDK9/CycK (Homo sapiens, UniProt P50750); assay: Kinase profiling; type: biochemical; conditions: 10 semi-logarithmic dilutions from 50 μM, singlicate
CDK3/CycE1 = CDK3/CycE1 (Homo sapiens, UniProt Q00526); assay: Kinase profiling; type: biochemical; conditions: 10 semi-logarithmic dilutions from 50 μM, singlicate
CDK6/CycD3 = CDK6/CycD3 (Homo sapiens, UniProt Q00534); assay: Kinase profiling; type: biochemical; conditions: 10 semi-logarithmic dilutions from 50 μM, singlicate
CDC7/DBF4 = CDC7/DBF4 (Homo sapiens, UniProt O00311); assay: Kinase profiling; type: biochemical; conditions: 10 semi-logarithmic dilutions from 50 μM, singlicate; read-out: IC50 CDC7/DBF4
[6] = test system: panel of 27 kinases (CDK family members); assay: Kinase profiling, results in words; type: biochemical; conditions: from Table 1
CDK1/CycA2 = CDK1/CycA2 (Homo sapiens, UniProt P06493); assay: Kinase profiling; type: biochemical; conditions: 10 semi-logarithmic dilutions from 50 μM, singlicate
PIM1 = PIM1 (Homo sapiens, UniProt P11309); assay: Kinase profiling; type: biochemical; conditions: 10 semi-logarithmic dilutions from 50 μM, singlicate
[7] = Table 3, 48 h, n = 3 independent experiments, read-out: GI50 U87MG
[8] = Table 4, n = 4, read-out: Growth inhibition GI50, Glioblastoma pRB Wild-Type U87MG
[9] = Table 3, 48 h, n = 3 independent experiments, read-out: GI50 MDA-MB231
[10] = Table 4, n = 4, read-out: Growth inhibition GI50, Breast cancer pRB Wild-Type MDA-MB-231

Sequence of CDK4/CycD1 (P11802 whole entry): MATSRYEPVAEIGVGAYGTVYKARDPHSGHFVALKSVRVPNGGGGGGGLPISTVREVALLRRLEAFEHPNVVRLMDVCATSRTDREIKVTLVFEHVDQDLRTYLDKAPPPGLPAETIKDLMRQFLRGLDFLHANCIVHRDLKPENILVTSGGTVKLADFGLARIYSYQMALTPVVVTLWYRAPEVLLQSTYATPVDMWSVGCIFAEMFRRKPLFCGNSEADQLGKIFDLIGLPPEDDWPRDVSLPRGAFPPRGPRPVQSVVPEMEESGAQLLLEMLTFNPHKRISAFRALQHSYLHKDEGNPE
Sequence of CDK4/CycD1 (P24385 whole entry partner): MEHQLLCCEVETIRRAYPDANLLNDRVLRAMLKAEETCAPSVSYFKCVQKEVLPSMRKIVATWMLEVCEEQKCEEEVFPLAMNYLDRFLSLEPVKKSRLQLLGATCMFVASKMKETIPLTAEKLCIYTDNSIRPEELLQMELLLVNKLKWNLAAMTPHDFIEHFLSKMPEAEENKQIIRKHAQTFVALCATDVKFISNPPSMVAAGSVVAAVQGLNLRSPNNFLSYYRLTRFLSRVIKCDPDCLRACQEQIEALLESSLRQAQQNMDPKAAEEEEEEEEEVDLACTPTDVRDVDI
Sequence of CDK4/CycD3 (P11802 whole entry): as the sequence (P11802 whole entry) above
Sequence of CDK4/CycD3 (P30281 whole entry partner): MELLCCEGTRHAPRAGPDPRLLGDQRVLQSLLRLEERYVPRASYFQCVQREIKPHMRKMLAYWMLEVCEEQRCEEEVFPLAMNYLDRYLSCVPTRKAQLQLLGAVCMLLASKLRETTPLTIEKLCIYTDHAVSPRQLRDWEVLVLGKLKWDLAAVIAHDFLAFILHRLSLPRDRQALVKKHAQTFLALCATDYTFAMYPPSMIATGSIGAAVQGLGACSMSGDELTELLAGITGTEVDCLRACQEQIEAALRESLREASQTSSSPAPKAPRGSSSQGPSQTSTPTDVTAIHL
Sequence of CDK7/CycH/MAT1 (P50613 whole entry): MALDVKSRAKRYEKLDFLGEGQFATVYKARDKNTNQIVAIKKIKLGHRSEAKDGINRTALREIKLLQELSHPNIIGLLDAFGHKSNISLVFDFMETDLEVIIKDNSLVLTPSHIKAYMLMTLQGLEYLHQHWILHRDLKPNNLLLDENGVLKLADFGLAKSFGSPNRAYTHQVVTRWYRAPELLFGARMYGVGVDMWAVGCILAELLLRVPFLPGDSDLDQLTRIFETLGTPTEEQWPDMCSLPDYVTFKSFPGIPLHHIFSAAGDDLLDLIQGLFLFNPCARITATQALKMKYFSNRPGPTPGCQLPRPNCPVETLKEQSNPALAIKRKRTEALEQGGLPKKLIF
Sequence of CDK7/CycH/MAT1 (P51946 whole entry partner): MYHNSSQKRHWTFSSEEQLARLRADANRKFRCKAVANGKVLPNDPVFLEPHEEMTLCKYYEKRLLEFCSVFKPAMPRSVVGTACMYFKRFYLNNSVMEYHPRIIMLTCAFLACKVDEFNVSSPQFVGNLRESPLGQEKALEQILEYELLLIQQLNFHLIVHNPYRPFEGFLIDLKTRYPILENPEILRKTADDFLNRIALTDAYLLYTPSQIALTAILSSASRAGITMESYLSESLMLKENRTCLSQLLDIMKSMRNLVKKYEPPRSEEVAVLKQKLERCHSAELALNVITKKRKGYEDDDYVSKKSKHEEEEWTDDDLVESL
Sequence of CDK7/CycH/MAT1 (P51948 whole entry partner): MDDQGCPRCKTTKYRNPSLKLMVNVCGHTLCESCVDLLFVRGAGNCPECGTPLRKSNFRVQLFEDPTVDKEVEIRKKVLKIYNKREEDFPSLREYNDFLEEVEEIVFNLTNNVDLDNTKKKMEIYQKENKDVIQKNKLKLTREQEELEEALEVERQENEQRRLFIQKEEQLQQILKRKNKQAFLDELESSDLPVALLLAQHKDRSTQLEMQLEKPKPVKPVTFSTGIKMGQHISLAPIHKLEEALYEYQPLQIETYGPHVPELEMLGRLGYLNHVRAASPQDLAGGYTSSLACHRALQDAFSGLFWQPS
Sequence of ERK1 (P27361 whole entry): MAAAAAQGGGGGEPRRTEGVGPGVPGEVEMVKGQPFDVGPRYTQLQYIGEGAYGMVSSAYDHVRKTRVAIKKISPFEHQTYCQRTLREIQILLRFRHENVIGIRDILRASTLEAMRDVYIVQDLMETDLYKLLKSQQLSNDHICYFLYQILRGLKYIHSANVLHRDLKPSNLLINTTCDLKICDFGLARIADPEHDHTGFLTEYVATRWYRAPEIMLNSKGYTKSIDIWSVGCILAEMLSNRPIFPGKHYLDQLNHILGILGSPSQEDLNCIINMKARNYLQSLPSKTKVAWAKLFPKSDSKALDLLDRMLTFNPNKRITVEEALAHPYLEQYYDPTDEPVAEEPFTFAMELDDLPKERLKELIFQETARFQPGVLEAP
Sequence of PIM1 (P11309 whole entry, species assumed): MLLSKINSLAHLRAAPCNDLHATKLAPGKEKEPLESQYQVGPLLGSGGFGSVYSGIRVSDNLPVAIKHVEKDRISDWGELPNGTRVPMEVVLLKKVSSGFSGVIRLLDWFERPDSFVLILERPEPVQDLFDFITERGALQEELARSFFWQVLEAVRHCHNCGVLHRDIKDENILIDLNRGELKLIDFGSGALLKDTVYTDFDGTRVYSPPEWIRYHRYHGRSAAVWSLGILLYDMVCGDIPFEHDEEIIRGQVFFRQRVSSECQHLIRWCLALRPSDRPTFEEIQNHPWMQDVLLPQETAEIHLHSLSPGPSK
T1 sequence (P31749 whole entry, the tested form may be a part): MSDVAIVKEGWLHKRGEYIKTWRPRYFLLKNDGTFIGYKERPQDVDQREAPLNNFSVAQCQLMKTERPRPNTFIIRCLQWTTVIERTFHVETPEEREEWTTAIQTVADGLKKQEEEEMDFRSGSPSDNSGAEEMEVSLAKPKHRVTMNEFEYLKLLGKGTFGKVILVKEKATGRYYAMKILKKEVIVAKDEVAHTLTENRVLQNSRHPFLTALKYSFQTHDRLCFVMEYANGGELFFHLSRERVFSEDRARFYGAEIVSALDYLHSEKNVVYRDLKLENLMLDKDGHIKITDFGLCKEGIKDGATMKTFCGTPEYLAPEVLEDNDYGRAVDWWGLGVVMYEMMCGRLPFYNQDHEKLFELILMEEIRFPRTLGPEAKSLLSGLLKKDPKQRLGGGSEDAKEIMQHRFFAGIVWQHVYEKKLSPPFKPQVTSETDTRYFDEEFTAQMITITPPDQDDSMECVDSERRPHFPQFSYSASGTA
Sequence of CDK1/CycB1 (P06493 whole entry): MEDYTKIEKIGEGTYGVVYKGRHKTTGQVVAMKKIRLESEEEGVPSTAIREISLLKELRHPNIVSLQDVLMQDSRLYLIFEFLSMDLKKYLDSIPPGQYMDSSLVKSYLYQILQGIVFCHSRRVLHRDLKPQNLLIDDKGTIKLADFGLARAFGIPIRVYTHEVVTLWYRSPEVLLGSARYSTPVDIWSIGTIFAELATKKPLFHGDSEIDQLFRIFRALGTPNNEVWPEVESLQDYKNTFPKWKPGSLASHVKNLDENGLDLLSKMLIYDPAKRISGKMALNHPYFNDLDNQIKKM
Sequence of CDK1/CycB1 (P14635 whole entry partner): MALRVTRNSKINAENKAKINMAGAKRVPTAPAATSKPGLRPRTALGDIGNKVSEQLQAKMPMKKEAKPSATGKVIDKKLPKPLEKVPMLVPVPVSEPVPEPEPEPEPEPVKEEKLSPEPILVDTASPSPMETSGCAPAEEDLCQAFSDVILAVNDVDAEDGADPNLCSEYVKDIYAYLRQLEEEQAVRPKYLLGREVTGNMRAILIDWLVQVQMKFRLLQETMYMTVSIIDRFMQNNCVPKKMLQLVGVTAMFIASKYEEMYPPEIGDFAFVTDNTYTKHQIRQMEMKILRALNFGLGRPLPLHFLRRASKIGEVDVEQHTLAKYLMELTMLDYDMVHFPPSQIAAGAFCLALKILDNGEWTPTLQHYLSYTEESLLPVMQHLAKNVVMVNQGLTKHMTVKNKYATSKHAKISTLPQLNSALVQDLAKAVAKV
Sequence of CDK1/CycA2 (P06493 whole entry): as the sequence (P06493 whole entry) above
Sequence of CDK1/CycA2 (P20248 whole entry partner): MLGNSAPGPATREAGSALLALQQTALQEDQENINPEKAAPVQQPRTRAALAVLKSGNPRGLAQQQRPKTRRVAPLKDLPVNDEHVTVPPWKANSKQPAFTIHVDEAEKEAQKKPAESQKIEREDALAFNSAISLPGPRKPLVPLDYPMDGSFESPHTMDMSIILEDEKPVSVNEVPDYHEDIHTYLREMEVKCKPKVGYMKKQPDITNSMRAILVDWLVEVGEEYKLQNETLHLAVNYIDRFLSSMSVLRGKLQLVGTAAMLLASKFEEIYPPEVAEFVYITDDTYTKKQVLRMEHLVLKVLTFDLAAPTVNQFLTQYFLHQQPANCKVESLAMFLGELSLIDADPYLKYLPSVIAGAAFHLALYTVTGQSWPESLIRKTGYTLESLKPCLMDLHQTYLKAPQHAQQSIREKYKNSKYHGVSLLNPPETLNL

Row | Compound | cell cycle arrest by DNA content [1] | IC50 (CDK6/CycD1) [nM] | IC50 (ERK1) [nM] | IC50 (CDK4/CycD3) [nM] | IC50 (CDK7/CycH/MAT1) [nM] | IC50 (CDK1/CycB1) [nM] | IC50 (CDK3/CycC) [nM] | IC50 (CDK4/CycD1) [nM] | IC50 (CDK2/CycE1) [nM] | IC50 (CDK8/CycC) [nM] | IC50 (CDK19/CycC) [nM] | GI50 [2] [nM] | GI50 [3, 7] [nM] | GI50 [4] [nM] | GI50 [5, 9] [nM] | IC50 (CDK2/CycA2) [nM] | IC50 (AKT1 aa1-480) [nM] | IC50 (CDK9/CycK) [nM] | IC50 (CDK3/CycE1) [nM] | IC50 (CDK6/CycD3) [nM] | further results
1 | CC(O)COC1CCN(c2ccc(Nc3ncc4ccc(=O)n([C@@H]5CC6CCC5C6)c4n3)cc2)CC1 (stereo partly drawn) [PS006, 8-((2R)-bicyclo[2.2.1]heptan-2-yl)-2-((4-(4-(2-hydroxypropoxy)piperidin-1-yl)phenyl)amino)pyrido[2,3-d]pyrimidin-7(8H)-one] | induced G2/M arrest; also recorded: arrested cells in G2/M phases | 12.5 | 8320 | 46.6 | 8000 | 1960 | 885 | 18.9 | 108 | 103 | 4130 | 190 | 2340 | 420 | 1400 | 203 | > 50000 | 148 | 306 | 108 | GI50 [3, 8]: 2200 nM; GI50 [5, 10]: 1700 nM; IC50 (CDC7/DBF4): 5570 nM; affinity for CDK5 [6]: presented affinity; kinase affinity profile [6]: high affinity for CDK6/2/5/9; IC50 (CDK1/CycA2): 4280 nM; IC50 (PIM1): > 50000 nM
2 | O=c1ccc2cnc(Nc3ccc(N4CCC(OCC5(CO)COC5)CC4)cc3)nc2n1[C@@H]1CC2CCC1C2 (stereo partly drawn) [PS016, 8-((2R)-bicyclo[2.2.1]heptan-2-yl)-2-((4-(4-((3-(hydroxymethyl)oxetan-3-yl)methoxy)piperidin-1-yl)phenyl)amino)pyrido[2,3-d]pyrimidin-7(8H)-one] | induced G2/M arrest | 7.42 | 10700 | 20.8 | 2370 | 614 | 555 | 8.86 | 71.7 | 37.9 | 2790 | 440 | 1120 | 130 | 1230 | 49.7 | > 50000 | 46.9 | 93.4 | 33.3 | IC50 (CDC7/DBF4): 1980 nM; additional affinity for CDK1/2 [6]: additional affinity; affinity for CDK5 [6]: presented affinity; IC50 (CDK1/CycA2): 1360 nM; IC50 (PIM1): 40100 nM
3 | CC(O)CCC1CCN(c2ccc(Nc3ncc4ccc(=O)n([C@@H]5CC6CCC5C6)c4n3)cc2)CC1 (stereo partly drawn) [PS004, 8-((2R)-bicyclo[2.2.1]heptan-2-yl)-2-((4-(4-(3-hydroxybutyl)piperidin-1-yl)phenyl)amino)pyrido[2,3-d]pyrimidin-7(8H)-one] | accumulation of cells both in G1 and G2/M phases; also recorded: arresting cells in G1/G2/M cell cycle phases | 27.4 | 37800 | 123 | 21700 | 16400 | 2100 | 35.3 | 303 | 162 | 9600 | 1400 | 4500 | 1430 | 3600 | 452 | > 50000 | 141 | 654 | 442 | GI50 [3, 8]: 5500 nM; GI50 [5, 10]: 3500 nM; IC50 (CDC7/DBF4): 9900 nM; kinase affinity profile [6]: affinity not only for CDK4/6 but also for CDK2/9; IC50 (CDK1/CycA2): 14500 nM; IC50 (PIM1): > 50000 nM
4 | CC(=O)c1c(C)c2cnc(Nc3ccc(N4CCC(CCCO)CC4)cc3)nc2n(C2CCCC2)c1=O [PS009, 6-acetyl-8-cyclopentyl-2-((4-(4-(3-hydroxypropyl)piperidin-1-yl)phenyl)amino)-5-methylpyrido[2,3-d]pyrimidin-7(8H)-one] | induced accumulation of cells in G0/G1; also recorded: arrested cells predominantly in G1 | 13 | 48900 | 55.4 | 30800 | 32500 | 7660 | 26 | 2940 | > 50000 | 36400 | 1550 | 900 | 1170 | 3000 | 768 | > 50000 | 56 | 17100 | 125 | GI50 [3, 8]: 6900 nM; GI50 [5, 10]: 3300 nM; IC50 (CDC7/DBF4): > 50000 nM; additional affinity for CDK1/2 [6]: additional affinity; kinase affinity profile [6]: mainly bound to CDK4/6/ with also an interesting preference for CDK2 and CDK9; IC50 (CDK1/CycA2): > 50000 nM; IC50 (PIM1): > 50000 nM
